Source: PubChem BioAssay (NCI)
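Cultured in 96-well plates, cells were exposed to test compound for 48 hours across five concentrations. TGI is the concentration that stops growth completely.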

Key:
Test in all cases: inhibition of tumour cell growth, NCI panel, 48 h
[1] = tested on: HOP-62 NSCLC
[2] = tested on: IGROV1 ovarian
[3] = tested on: KM12 colon
[4] = tested on: MDA-MB-435
[5] = tested on: HT29 colon
[6] = tested on: BT-549 breast
[7] = tested on: EKVX NSCLC
[8] = tested on: M14 melanoma
[9] = tested on: HCT-116 colon
[10] = tested on: NCI-H522 lung
[11] = tested on: CCRF-CEM leukemia
[12] = tested on: SK-OV-3 ovarian
[13] = tested on: SW-620 colon
[14] = tested on: A498 renal
[15] = tested on: HOP-92 NSCLC
[16] = tested on: SK-MEL-5 melanoma
[17] = tested on: MDA-MB-231 breast
[18] = tested on: HL-60(TB) leukemia
[19] = tested on: TK-10 renal
[20] = tested on: SK-MEL-2 melanoma
[21] = tested on: ACHN renal
[22] = tested on: PC-3 prostate
[23] = tested on: NCI-H23 lung
[24] = tested on: HCC-2998 colon
[25] = tested on: DU-145 prostate
[26] = tested on: SF-295 CNS
[27] = tested on: UO-31 renal
[28] = tested on: MDA-N
[29] = tested on: CAKI-1 renal
[30] = tested on: OVCAR-4 ovarian
[31] = tested on: COLO 205 colon
[32] = tested on: RXF 393 renal
[33] = tested on: OVCAR-5 ovarian
[34] = tested on: K-562 leukemia
[35] = tested on: SNB-19 CNS
[36] = tested on: UACC-257 melanoma
[37] = tested on: SF-539 CNS
[38] = tested on: MALME-3M melanoma
[39] = tested on: SF-268 CNS
[40] = tested on: NCI-H460 lung
[41] = tested on: A549 NSCLC
[42] = tested on: RPMI-8226 leukemia
[43] = tested on: 786-0 renal
[44] = tested on: NCI-H226 lung
[45] = tested on: U251 CNS
[46] = tested on: NCI/ADR-RES ovarian
[47] = tested on: UACC-62 melanoma
[48] = tested on: MCF7 breast
[49] = tested on: HCT-15 colon
[50] = tested on: MOLT-4 leukemia
[51] = tested on: SR leukemia
[52] = tested on: SNB-75 CNS
[53] = tested on: HS 578T breast
[54] = tested on: OVCAR-3 ovarian
[55] = tested on: SN12C renal
[56] = tested on: LOX IMVI melanoma
[57] = tested on: OVCAR-8 ovarian
[58] = tested on: SK-MEL-28 melanoma

N=c1ccc2c(c1)[nH]c1c3ccccc3[nH]c3cccc2c31
TGI [1]: 2.58 µM
TGI [2]: 2.67 µM
TGI [3]: 2.6 µM
TGI [4]: 3.2 µM
TGI [5]: 2.47 µM
TGI [6]: 13.1 µM
TGI [7]: 3.1 µM
TGI [8]: 3.65 µM
TGI [9]: 2.8 µM
TGI [10]: 3.06 µM
TGI [11]: > 100 µM
TGI [12]: 3 µM
TGI [13]: 2.02 µM
TGI [14]: 3.2 µM
TGI [15]: 3.22 µM
TGI [16]: 3.17 µM
TGI [17]: 2.69 µM
TGI [18]: > 100 µM
TGI [19]: 3.62 µM
TGI [20]: 3.14 µM
TGI [21]: 2.74 µM
TGI [22]: 2.97 µM
TGI [23]: 2.94 µM
TGI [24]: 2.44 µM
TGI [25]: 2.95 µM
TGI [26]: 2.61 µM
TGI [27]: 3.14 µM
TGI [28]: 2.76 µM
TGI [29]: 3.02 µM
TGI [30]: 3.23 µM
TGI [31]: 2.67 µM
TGI [32]: 3.09 µM
TGI [33]: 3.16 µM
TGI [34]: > 100 µM
TGI [35]: 3 µM
TGI [36]: 3.52 µM

N/N=C1\CCCc2c1no[n+]2[O-]
TGI [1]: > 100 µM
TGI [2]: > 100 µM
TGI [3]: > 100 µM
TGI [4]: > 100 µM
TGI [5]: > 100 µM
TGI [37]: > 100 µM
TGI [7]: > 100 µM
TGI [38]: > 100 µM
TGI [8]: > 100 µM
TGI [39]: > 100 µM
TGI [9]: > 100 µM
TGI [40]: > 100 µM
TGI [10]: > 100 µM
TGI [11]: > 100 µM
TGI [12]: > 100 µM
TGI [13]: > 100 µM
TGI [41]: > 100 µM
TGI [14]: > 100 µM
TGI [42]: > 100 µM
TGI [43]: > 100 µM
TGI [44]: > 100 µM
TGI [16]: > 100 µM
TGI [45]: > 100 µM
TGI [17]: > 100 µM
TGI [18]: > 100 µM
TGI [19]: > 100 µM
TGI [20]: > 100 µM
TGI [21]: > 100 µM
TGI [22]: > 100 µM
TGI [23]: > 100 µM
TGI [24]: > 100 µM
TGI [25]: > 100 µM
TGI [26]: > 100 µM
TGI [27]: > 100 µM
TGI [46]: > 100 µM
TGI [47]: > 100 µM
TGI [28]: > 100 µM
TGI [48]: > 100 µM
TGI [49]: > 100 µM
TGI [50]: > 100 µM
TGI [29]: > 100 µM
TGI [30]: > 100 µM
TGI [51]: > 100 µM
TGI [31]: > 100 µM
TGI [32]: > 100 µM
TGI [33]: > 100 µM
TGI [34]: > 100 µM
TGI [52]: > 100 µM
TGI [53]: > 100 µM
TGI [54]: > 100 µM
TGI [35]: > 100 µM
TGI [55]: > 100 µM
TGI [56]: > 100 µM
TGI [57]: > 100 µM
TGI [58]: > 100 µM
TGI [36]: > 100 µM
